The text below walks through data of patent US8519004B2 (Repros Therapeutics Inc., priority 2005, dated 2013).

The conditions of data set [1]: 50 mg dose; placebo group ratio 1.07.
Experimental: (§1) Half of the men in each of the Androxal™ and placebo arms were randomized into cohorts that underwent in-clinic sessions on days 1 and 14 to determine pharmacokinetic parameters for Androxal™ as well as cyclical changes in testosterone. The placebo and Androxal™ doses were administered in a double blind fashion. The Androgel® cream was administered in an open label fashion. Half of the Androgel® patients underwent in-clinic sessions similar to the other patients in the study. Following the two week drug exposure patients were followed for an additional seven to ten days to determine the status of their testosterone levels.
The test system of the next data set is serum LH and FSH. The conditions noted are these: during treatment.
Another data set relates to serum testosterone. The experiment in a line: Serum testosterone in male baboons given Clomid, Enclomid or Zuclomid. It counts as in vivo. To be noted: between day 12 and day 18 (washout).
The nature of data set [2]: Clinical chemistry and hematology parameters in male baboons. It counts as in vivo. To be noted: for ALT/SGPT: changes over the treatment period / end of the study; for serum anion gap: day 12 and washout; for BUN and BUN/creatinine: during the study; for serum glucose: change with treatment; for serum carbon dioxide: day 12.
Text: (§2) The samples analyzed were sera taken on the day of first treatment before being given test article (day 0), after 12 days of treatment (day 12) and 7 days after the last treatment (end or wash-out).
The next data set has as its system serum cholesterol. The experiment in a line: Serum cholesterol in male baboons. Format: in vivo. To be noted: 1.5 mg/kg for 12 days.
For data set [3] the following is noted: following a single dose; cited from earlier work.

Each structure is given as a SMILES string. Structures can show the parent of a compound that is named as a salt.

Experimental for serum LH and FSH: as §1
Text for serum cholesterol: as §2
Text for serum testosterone: as §2
Experimental for serum total testosterone: as §1

As for `CCN(CC)CCOc1ccc(/C(=C(\Cl)c2ccccc2)c2ccccc2)cc1` [Enclomid, trans-clomiphene], the DHT/TT ratio in data set [1] amounted to 0.83. For the same molecule, the “serum total testosterone in the follow-up period” value in the data set on serum total testosterone (7-10 days after cessation of daily oral treatment) is given as “remained high”. Further, the “changes in testosterone from baseline testosterone levels” value in the data set with serum total testosterone (all doses) was “statistically significant changes in testosterone”. For the same molecule, in the data set with serum total testosterone (follow-up period, p=0.017, t-test), the “serum total testosterone in follow-up, highest dose compared to the high dose of AndroGel 1%” value is reported as “significantly higher”. In the data set on serum LH and FSH, the “serum levels of FSH” value was “statistically increase” and the “serum levels of LH” value is “statistically significant increase”. For the same molecule, in the data set with serum testosterone, the “change in total serum testosterone after cessation of treatment” value is on record as “significant drop in the level of total serum testosterone”. Further, in data set [2] (1.5 mg/kg for 12 days), the eosinophil count result is “raising the counts of lymphocytes and eosinophiles”; the lymphocyte count result is recorded as “increase in lymphocyte count”; the “red blood cell population” value is recorded as “substantive effects on the red blood cell population”. Also, in data set [2] (between day 0 and Day 12), the serum creatinine result is recorded as “no differences between serum creatinine values”. In data set [2], the ALT/SGPT entry is “within the normal range”; the serum anion gap result was “raised this parameter towards normal values”; the “BUN and BUN/creatinine” value was “altered”. Moreover, in data set [2] (very strong after the 7-day washout period), the “percent of granulocytes in the blood” value is on record as “lowering the percent of granulocytes in the blood”.
Consider `CCN(CC)CCOc1ccc(C(=C(Cl)c2ccccc2)c2ccccc2)cc1` [Clomid, clomiphene citrate], for which the “increase in serum cholesterol levels” value with serum cholesterol was “slight increase”. Besides, in data set [2], the serum glucose result is “within the normal range”, the ALT/SGPT result is recorded as “out of range low”, the serum carbon dioxide entry is recorded as “higher than reference values” and the serum anion gap result is “lower values than the Enclomid group”. Moreover, the “BUN and BUN/creatinine” value in data set [2] is listed as “altered”.
`CCN(CC)CCOc1ccc(/C(=C(/Cl)c2ccccc2)c2ccccc2)cc1` [Zuclomid, cis-clomiphene]: in data set [3], the “duration of residual blood levels” value is given as “in excess of one month”. The “red blood cell population” value in data set [2] (1.5 mg/kg for 12 days) is “substantive effects on the red blood cell population”. In data set [2], the serum glucose entry is listed as “within the normal range”, the ALT/SGPT entry is recorded as “within the normal range”, the serum carbon dioxide result is recorded as “higher than reference values” and the serum anion gap result is reported as “lower values than the Enclomid group”.
